Experimental data published in patent US20250320213A1, “Nitrogen-Containing Heterocyclic Compounds” (Pfizer Inc., priority 2024, published 2025).

Legend:
[1] = biological target: T1, STAT6 (Homo sapiens, UniProt P42226); experiment: STAT6 Reporter Luciferase Assay (IL-13 stimulated HaCaT keratinocyte NanoLuc reporter cells); type: cell-based; details: IL-13 stimulated HaCaT STAT6 NanoLuc reporter cells; read-out: Reporter EC50
T1 construct: stably transfected HaCaT keratinocyte cell line, which expresses NanoLuc luciferase reporter gene under the transcriptional control of the STAT6 responsive promoter; endogenous in cells; host or cells: HaCaT keratinocyte reporter cell line (stably transfected with a NanoLuc reporter)
T1 sequence (P42226 1-847): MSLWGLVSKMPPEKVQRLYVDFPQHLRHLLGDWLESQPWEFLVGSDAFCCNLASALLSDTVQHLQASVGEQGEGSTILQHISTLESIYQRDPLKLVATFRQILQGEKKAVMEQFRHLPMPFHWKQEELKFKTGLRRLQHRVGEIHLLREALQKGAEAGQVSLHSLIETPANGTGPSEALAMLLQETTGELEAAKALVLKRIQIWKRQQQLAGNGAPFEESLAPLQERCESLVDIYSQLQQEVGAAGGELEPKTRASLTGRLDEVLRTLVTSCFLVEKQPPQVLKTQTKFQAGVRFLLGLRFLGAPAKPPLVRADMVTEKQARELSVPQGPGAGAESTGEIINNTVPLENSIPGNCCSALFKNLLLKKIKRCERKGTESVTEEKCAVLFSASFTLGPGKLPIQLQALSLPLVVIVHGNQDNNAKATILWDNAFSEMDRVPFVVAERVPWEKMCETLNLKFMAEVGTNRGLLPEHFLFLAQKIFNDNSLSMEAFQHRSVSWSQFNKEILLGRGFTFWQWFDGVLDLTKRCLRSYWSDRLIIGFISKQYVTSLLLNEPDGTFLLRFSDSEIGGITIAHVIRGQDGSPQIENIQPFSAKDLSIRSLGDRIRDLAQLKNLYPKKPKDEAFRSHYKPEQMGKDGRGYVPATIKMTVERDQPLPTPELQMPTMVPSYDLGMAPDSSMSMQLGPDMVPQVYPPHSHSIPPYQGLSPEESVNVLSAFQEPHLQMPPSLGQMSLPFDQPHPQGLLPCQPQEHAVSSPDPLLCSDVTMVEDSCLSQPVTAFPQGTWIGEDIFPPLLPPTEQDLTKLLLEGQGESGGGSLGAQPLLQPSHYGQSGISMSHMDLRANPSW
Summary of the method: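 Stably transfected HaCaT cells carrying NanoLuc under the STAT6-responsive IL-13Ra2 promoter were pre-treated with compound (11-point, 4-fold series, duplicate) for 2 h at 37 °C, then stimulated with 0.12 nM IL-13 for 4 h. Nano-Glo luminescence was read after 15 min.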

[2] = tested on: CCL17 secretion in peripheral human whole blood; experiment: Human Whole Blood (HWB) CCL17 TR-FRET Assay (IL-13 stimulated CCL17 secretion); type: cell-based; details: Homo sapiens, 48 h, human whole blood, 10 ng/mL IL13, 48 hours
Summary of the method: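 Measured here: CCL17 in serum by TR-FRET (665/615 nm) after overnight (16 h) room-temperature detection. The blood, heparinized and compound-treated for 2 h, received IL-13 at 10 ng/mL final and was cultured 48 h at 37 °C.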

Row | EC50 [1] [nM] | IC50 [2] [nM] | SMILES
1 | 1 | 17 | CC(C)n1nc(C(=O)NCc2ccc(NC(=O)N3CCCC3)cc2)c2c1[C@@H](C)CN(c1ccc(C(=O)N(C)C)cn1)C2 [Example 583, (S)-5-(5-(dimethylcarbamoyl)pyridin-2-yl)-1-isopropyl-7-methyl-N-(4-(pyrrolidine-1-carboxamido)benzyl)-4,5,6,7-tetrahydro-1H-pyrazolo[4,3-c]pyridine-3-carboxamide]
2 | 0.4 | 10 | CC(C)n1nc(C(=O)NCc2ccc(NC(=O)N3CCC(F)(F)C3)cc2)c2c1[C@@H](C)CN(c1ccc(C(=O)N(C)C)cn1)C2 [Example 590, (S)-N-(4-(3,3-difluoropyrrolidine-1-carboxamido)benzyl)-5-(5-(dimethylcarbamoyl)pyridin-2-yl)-1-isopropyl-7-methyl-4,5,6,7-tetrahydro-1H-pyrazolo[4,3-c]pyridine-3-carboxamide]
3 | 1 | 10 | CC(C)n1nc(C(=O)NCc2ccc(NC(=O)N3CCC3)cc2)c2c1[C@@H](C)CN(c1ccc(C(=O)N(C)C)cn1)C2 [Example 591, (S)-N-(4-(azetidine-1-carboxamido)benzyl)-5-(5-(dimethylcarbamoyl)pyridin-2-yl)-1-isopropyl-7-methyl-4,5,6,7-tetrahydro-1H-pyrazolo[4,3-c]pyridine-3-carboxamide]
4 | 1 | 9 | CC(C)n1nc(C(=O)NCc2ccc(NC(=O)N3CCC(C)(O)CC3)cc2)c2c1[C@@H](C)CN(c1ccc(C(=O)N(C)C)cn1)C2 [Example 592, (S)-5-(5-(dimethylcarbamoyl)pyridin-2-yl)-N-(4-(4-hydroxy-4-methylpiperidine-1-carboxamido)benzyl)-1-isopropyl-7-methyl-4,5,6,7-tetrahydro-1H-pyrazolo[4,3-c]pyridine-3-carboxamide]
5 | 1 | 12 | CC(C)n1nc(C(=O)NCc2ccc(NC(=O)N3CCC(C)(C#N)CC3)cc2)c2c1[C@@H](C)CN(c1ccc(C(=O)N(C)C)cn1)C2 [Example 593, (S)-N-(4-(4-cyano-4-methylpiperidine-1-carboxamido)benzyl)-5-(5-(dimethylcarbamoyl)pyridin-2-yl)-1-isopropyl-7-methyl-4,5,6,7-tetrahydro-1H-pyrazolo[4,3-c]pyridine-3-carboxamide]

The remaining lines, values behind:

Row | SMILES | EC50 [1] [nM] | IC50 [2] [nM]
6 | CC(C)n1nc(C(=O)NCc2ccc(NC(=O)N3CCCNCC3)c(F)c2)c2c1[C@@H](C)CN(c1ccc(C(=O)N(C)C)cc1)C2 [Example 576, (S)-N-(4-(1,4-diazepane-1-carboxamido)-3-fluorobenzyl)-5-(4-(dimethylcarbamoyl)phenyl)-1-isopropyl-7-methyl-4,5,6,7-tetrahydro-1H-pyrazolo[4,3-c]pyridine-3-carboxamide] | 4 | 19
7 | COC[C@H]1CN(C(=O)Nc2ccc(CNC(=O)c3nn(C(C)C)c4c3CN(c3ccc(C(=O)N(C)C)cc3)C[C@@H]4C)cc2)CCN1 [Example 577, (S)-5-(4-(dimethylcarbamoyl)phenyl)-1-isopropyl-N-(4-((R)-3-(methoxymethyl)piperazine-1-carboxamido)benzyl)-7-methyl-4,5,6,7-tetrahydro-1H-pyrazolo[4,3-c]pyridine-3-carboxamide] | 1 | 4
8 | COC[C@@H]1CN(C(=O)Nc2ccc(CNC(=O)c3nn(C(C)C)c4c3CN(c3ccc(C(=O)N(C)C)cc3)C[C@@H]4C)cc2)CCN1 [Example 578, (S)-5-(4-(dimethylcarbamoyl)phenyl)-1-isopropyl-N-(4-((S)-3-(methoxymethyl)piperazine-1-carboxamido)benzyl)-7-methyl-4,5,6,7-tetrahydro-1H-pyrazolo[4,3-c]pyridine-3-carboxamide] | 0.5 | 5
9 | CC(C)n1nc(C(=O)NCc2ccc(NC(=O)NCC(F)F)cc2)c2c1[C@@H](C)CN(c1ccc(C(=O)N(C)C)cn1)C2 [Example 579, (S)-N-(4-(3-(2,2-difluoroethyl)ureido)benzyl)-5-(5-(dimethylcarbamoyl)pyridin-2-yl)-1-isopropyl-7-methyl-4,5,6,7-tetrahydro-1H-pyrazolo[4,3-c]pyridine-3-carboxamide] | 0.4 | 8
10 | CC(C)n1nc(C(=O)NCc2ccc(NC(=O)N3CCN(C)CC3)c(F)c2)c2c1[C@@H](C)CN(c1ccc(C(=O)N(C)C)cc1)C2 [Example 580, (S)-5-(4-(dimethylcarbamoyl)phenyl)-N-(3-fluoro-4-(4-methylpiperazine-1-carboxamido)benzyl)-1-isopropyl-7-methyl-4,5,6,7-tetrahydro-1H-pyrazolo[4,3-c]pyridine-3-carboxamide] | 1 | 11
11 | CNC1(C)CN(C(=O)Nc2ccc(CNC(=O)c3nn(C(C)C)c4c3CN(c3ccc(C(=O)N(C)C)cc3)C[C@@H]4C)cc2)C1 [Example 581, (S)-5-(4-(dimethylcarbamoyl)phenyl)-1-isopropyl-7-methyl-N-(4-(3-methyl-3-(methylamino)azetidine-1-carboxamido)benzyl)-4,5,6,7-tetrahydro-1H-pyrazolo[4,3-c]pyridine-3-carboxamide] | 3 | 24
12 | CC(C)n1nc(C(=O)NCc2ccc(NC(=O)N3CC(F)C3)cc2)c2c1[C@@H](C)CN(c1ccc(C(=O)N(C)C)cn1)C2 [Example 584, (S)-5-(5-(dimethylcarbamoyl)pyridin-2-yl)-N-(4-(3-fluoroazetidine-1-carboxamido)benzyl)-1-isopropyl-7-methyl-4,5,6,7-tetrahydro-1H-pyrazolo[4,3-c]pyridine-3-carboxamide] | 1 | 12
13 | CC(C)n1nc(C(=O)NCc2ccc(NC(=O)C3CCN(C)CC3)cc2)c2c1[C@@H](C)CN(c1ccc(C(=O)N(C)C)cc1)C2 [Example 585, (S)-5-(4-(dimethylcarbamoyl)phenyl)-1-isopropyl-7-methyl-N-(4-(1-methylpiperidine-4-carboxamido)benzyl)-4,5,6,7-tetrahydro-1H-pyrazolo[4,3-c]pyridine-3-carboxamide] | 6 | 37
14 | CC(C)n1nc(C(=O)NCc2ccc(NC(=O)C3(F)CCN(C)CC3)cc2)c2c1[C@@H](C)CN(c1ccc(C(=O)N(C)C)cc1)C2 [Example 586, (S)-5-(4-(dimethylcarbamoyl)phenyl)-N-(4-(4-fluoro-1-methylpiperidine-4-carboxamido)benzyl)-1-isopropyl-7-methyl-4,5,6,7-tetrahydro-1H-pyrazolo[4,3-c]pyridine-3-carboxamide] | 6 | 58
15 | CC(C)n1nc(C(=O)NCc2ccc(NC(=O)C3CCN(C)CC3)c(F)c2)c2c1[C@@H](C)CN(c1ccc(C(=O)N(C)C)cn1)C2 [Example 587, (S)-5-(5-(dimethylcarbamoyl)pyridin-2-yl)-N-(3-fluoro-4-(1-methylpiperidine-4-carboxamido)benzyl)-1-isopropyl-7-methyl-4,5,6,7-tetrahydro-1H-pyrazolo[4,3-c]pyridine-3-carboxamide] | 14 | 122
16 | COc1cc(NC(=O)N2CCNCC2)c(F)cc1CNC(=O)c1nn(C(C)C)c2c1CN(c1ccc(C(=O)N(C)C)cc1)C[C@@H]2C [Example 588, (S)-5-(4-(dimethylcarbamoyl)phenyl)-N-(5-fluoro-2-methoxy-4-(piperazine-1-carboxamido)benzyl)-1-isopropyl-7-methyl-4,5,6,7-tetrahydro-1H-pyrazolo[4,3-c]pyridine-3-carboxamide] | 75 | 875
17 | CC(C)n1nc(C(=O)NCc2ccc(NC(=O)N3CCNCC3)cc2F)c2c1[C@@H](C)CN(c1ccc(C(=O)N(C)C)cc1)C2 [Example 589, (S)-5-(4-(dimethylcarbamoyl)phenyl)-N-(2-fluoro-4-(piperazine-1-carboxamido)benzyl)-1-isopropyl-7-methyl-4,5,6,7-tetrahydro-1H-pyrazolo[4,3-c]pyridine-3-carboxamide] | 3 | 19
18 | CC(C)n1nc(C(=O)NCc2ccc(NC(=O)N3CCN(C)CC3)cc2)c2c1[C@@H](C)CN(c1ccc(-n3ccccc3=O)cc1)C2 [Example 594, (S)-1-isopropyl-7-methyl-N-(4-(4-methylpiperazine-1-carboxamido)benzyl)-5-(4-(2-oxopyridin-1(2H)-yl)phenyl)-4,5,6,7-tetrahydro-1H-pyrazolo[4,3-c]pyridine-3-carboxamide] | 2 | 25
